{
  "source": "paper PMC5986797",
  "about": "“Laminin heparin-binding peptides bind to several growth factors and enhance diabetic wound healing” (Nature Communications, 2018)",
  "tested_on": "full-thickness back-skin wounds in db/db mice",
  "experiment": "Retention of VEGF-A165 at the wound site",
  "type": "in vivo, mouse",
  "conditions": "3 days after treatment, fibrin matrix with 200 ng/wound VEGF-A165 and 2 µM peptide vs without peptide, ELISA",
  "description": "Ten C57BLKS/J-m/Lepr db (db/db) mice (The Jackson laboratory) aged 10–11 weeks were used. Their backs were shaved and four full-thickness punch-biopsy wounds (6 mm in diameter) were created in each mouse. Directly after, fibrin matrices [80 µL in total, fibrinogen (10 mg/mL), 2 U/mL human thrombin, 4 U/mL factor XIII, 5 mM calcium chloride, 2 µM α2PI1–8-LAMA3_3043–3067, and 200 ng of recombinant human VEGF-A165] were polymerized on the wounds. To avoid drying of the matrices, the wounds were covered with non-adhering dressing (Adaptic, Johnson&Johnson), and then with adhesive film dressing (Hydrofilm, Hartmann). After 3 or 6 days, mice were sacrificed. The wounds were punched again, in order to recover the fibrinous matrices. Moreover, the tissue surrounding the wounds (2 mm beyond the wound margin) was removed. The tissue was transferred in 0.9 mL of tissue T-PER Tissue Protein Extraction Reagent (Thermo Scientific) containing 1 mg/mL of collagenase IV (Sigma-Aldrich), and homogenized with a tissue homogenizer. […] Recombinant human VEGF-A165 remaining in the fibrinous matrix and in the tissue surrounding the wound was quantified by ELISA (DuoSet, R&D Systems), using 200 ng of recombinant human VEGF-A165 as 100%. […]",
  "data": [
    {"sequence": "NQEQVSPLRLVFALGTDGKKLRIKSKEKCNDGK [α2PI1–8-LAMA3_3043–3067]", "values": [
      {"measurement": "amount of VEGF-A165 remaining in the wounds", "result": "significantly enhanced"}
    ]}
  ]
}
